Assays:
[1] = Surface tension in water (Test Procedure I, Kruss K12 Tensiometer); type: physicochemical; conditions: for Surface Tension (dynes/cm) at Various Surfactant Concentrations: 23 ppm: 23 ppm in water; for Surface Tension (dynes/cm) at Various Surfactant Concentrations: 83 ppm: 83 ppm in water; for Surface Tension (dynes/cm) at Various Surfactant Concentrations: 164 ppm: 164 ppm in water; for Surface Tension (dynes/cm) at Various Surfactant Concentrations: 273 ppm: 273 ppm in water; for Surface Tension (dynes/cm) at Various Surfactant Concentrations: 421 ppm: 421 ppm in water; for Surface Tension (dynes/cm) at Various Surfactant Concentrations: 617 ppm: 617 ppm in water; for Surface Tension (dynes/cm) at Various Surfactant Concentrations: 875 ppm: 875 ppm in water; for Surface Tension (dynes/cm) at Various Surfactant Concentrations: 1032 ppm: 1032 ppm in water; for Surface Tension (dynes/cm) at Various Surfactant Concentrations: 20 ppm: 20 ppm in water; for Surface Tension (dynes/cm) at Various Surfactant Concentrations: 200 ppm: 200 ppm in water; for Surface Tension (dynes/cm) at Various Surfactant Concentrations: 2000 ppm: 2000 ppm in water
Method: Test Procedure I—Surface Tension Determination
All surface tensions were determined using a Kruss K12 Tensiometer. […] The program was run using a Wilhelmy platinum plate (PL12) and glass sample vessel (GL7).

[2] = Dynamic surface tension of water (Kruss Bubble Pressure Tensiometer BP2); type: physicochemical; conditions: 0.5 weight % in water; for Dynamic Surface Tension (mN/m) at Indicated Bubble Frequency (Hz): 0.01: 0.01 Hz; for Dynamic Surface Tension (mN/m) at Indicated Bubble Frequency (Hz): 0.5: 0.5 Hz; for Dynamic Surface Tension (mN/m) at Indicated Bubble Frequency (Hz): 1.0: 1.0 Hz; for Dynamic Surface Tension (mN/m) at Indicated Bubble Frequency (Hz): 5.0: 5.0 Hz
Method: The dynamic surface tension of water containing 0.5 weight % FC-171 (C8F17SO2N(Et)(CH2CH2O)7.5CH3, for which the surface tension was measured in Comparative Example C2, was measured with a Kruss Bubble Pressure Tensiometer, Model BP2 (Kruss USA, Charlotte, N.C.). The results are shown in Table 11.

Molecule: CCN(CCOCCOCCOCCOCCOCCOCCOC)S(=O)(=O)C(F)(F)C(F)(F)C(F)(F)C(F)(F)C(F)(F)C(F)(F)C(F)(F)C(F)(F)F [FC-171, C8F17SO2N(C2H5)(CH2CH2O)7CH3]
- Surface Tension (dynes/cm) at Various Surfactant Concentrations: 23 ppm [1]: 33.5 dynes/cm
- Surface Tension (dynes/cm) at Various Surfactant Concentrations: 83 ppm [1]: 21 dynes/cm
- Surface Tension (dynes/cm) at Various Surfactant Concentrations: 164 ppm [1]: 20.5 dynes/cm
- Surface Tension (dynes/cm) at Various Surfactant Concentrations: 273 ppm [1]: 19.5 dynes/cm
- Surface Tension (dynes/cm) at Various Surfactant Concentrations: 421 ppm [1]: 19 dynes/cm
- Surface Tension (dynes/cm) at Various Surfactant Concentrations: 617 ppm [1]: 19 dynes/cm
- Surface Tension (dynes/cm) at Various Surfactant Concentrations: 875 ppm [1]: 19 dynes/cm
- Surface Tension (dynes/cm) at Various Surfactant Concentrations: 1032 ppm [1]: 19 dynes/cm
- Dynamic Surface Tension (mN/m) at Indicated Bubble Frequency (Hz): 0.01 [2]: 51 mN/m
- Dynamic Surface Tension (mN/m) at Indicated Bubble Frequency (Hz): 0.5 [2]: 67 mN/m
- Dynamic Surface Tension (mN/m) at Indicated Bubble Frequency (Hz): 1.0 [2]: 70 mN/m
- Dynamic Surface Tension (mN/m) at Indicated Bubble Frequency (Hz): 5.0 [2]: 71 mN/m

Molecule: CN(CC(=O)[O-])S(=O)(=O)C(F)(F)C(F)(F)C(F)(F)C(F)(F)F.[K+] [C4F9SO2N(Et)CH2CO2K, C4F9SO2N(CH3)CH2CO2K]
- Surface Tension (dynes/cm) at Various Surfactant Concentrations: 20 ppm [1]: 68.5 dynes/cm
- Surface Tension (dynes/cm) at Various Surfactant Concentrations: 200 ppm [1]: 57.4 dynes/cm
- Surface Tension (dynes/cm) at Various Surfactant Concentrations: 2000 ppm [1]: 44.4 dynes/cm

Molecule: CN(CC(=O)[O-])S(=O)(=O)C(F)(F)C(F)(F)C(F)(F)C(F)(F)C(F)(F)C(F)(F)F.[K+] [C6F13SO2N(Et)CH2CO2K, C6F13SO2N(CH3)CH2CO2K]
- Surface Tension (dynes/cm) at Various Surfactant Concentrations: 20 ppm [1]: 48.2 dynes/cm
- Surface Tension (dynes/cm) at Various Surfactant Concentrations: 200 ppm [1]: 30.8 dynes/cm
- Surface Tension (dynes/cm) at Various Surfactant Concentrations: 2000 ppm [1]: 15.5 dynes/cm

Molecule: C4F9SO2N(CH3)(CH2CH2O)7.5CH3 [Example 1]
- Surface Tension (dynes/cm) at Various Surfactant Concentrations: 23 ppm [1]: 31 dynes/cm
- Surface Tension (dynes/cm) at Various Surfactant Concentrations: 83 ppm [1]: 24 dynes/cm
- Surface Tension (dynes/cm) at Various Surfactant Concentrations: 164 ppm [1]: 23 dynes/cm
- Surface Tension (dynes/cm) at Various Surfactant Concentrations: 273 ppm [1]: 22.5 dynes/cm
- Surface Tension (dynes/cm) at Various Surfactant Concentrations: 421 ppm [1]: 22 dynes/cm
- Surface Tension (dynes/cm) at Various Surfactant Concentrations: 617 ppm [1]: 21.5 dynes/cm
- Surface Tension (dynes/cm) at Various Surfactant Concentrations: 875 ppm [1]: 20 dynes/cm
- Surface Tension (dynes/cm) at Various Surfactant Concentrations: 1032 ppm [1]: 20 dynes/cm
- Surface tension in water compared with the C8F17 analog (in words) ([1]; water, plotted against concentration in FIGS. 3-5, 7, 8): very similar to that found when using the C8F17 segment
- Dynamic Surface Tension (mN/m) at Indicated Bubble Frequency (Hz): 0.01 [2]: 21 mN/m
- Dynamic Surface Tension (mN/m) at Indicated Bubble Frequency (Hz): 0.5 [2]: 22 mN/m
- Dynamic Surface Tension (mN/m) at Indicated Bubble Frequency (Hz): 1.0 [2]: 22.5 mN/m
- Dynamic Surface Tension (mN/m) at Indicated Bubble Frequency (Hz): 5.0 [2]: 23 mN/m
